Key:
S. mutans = test: Toxic cargo DM assay; format: cell-based, Streptococcus mutans; conditions: monoculture, 1 min; CHX 0.033% and H2O2 0.25% final concentration, no DM (FIG. 8A left)
Procedure: (§1) DM was hydrated in THB only (control) or THB containing either hydrogen peroxide (1.5%) or chlorhexidine (0.2%) to create a 10% (w/v) slurry. For Applicant's DM assays, 250 μl of hydrated DM G25 superfine (125 μl final volume; 12.5 mg) was added to a Micro Bio-Spin chromatography column (BioRad, Hercules, Calif.) and excess liquid was removed by centrifugation at 100×g for 30 seconds, leaving DM with toxic cargo in the lumen. 125 μl of THB (the same volume of excess toxic cargo removed by filtration) was added to the DM column to create a 10% slurry (w/v), followed by the immediate addition of 500 μl of culture as described above for Applicant's basic DM assay. For control assays containing no DM, 125 μl of THB or THB containing toxic cargo (the same volume that is present in the DM lumen) was added to the spin column containing 125 THB followed by the addition of 500 μl of culture as described above for Applicant's basic DM assay. After incubation for 1 minute at RT, the cell/DM mixture was centrifuged for 1 minute at 100×g. The flow-through was serial diluted in PBS, and serial dilutions were plated onto THB (S. gordonii) or THB containing 1.5 μg/ml erythromycin (S. mutans) or LB (E. coli) agar and incubated at 37° C.+5% CO2. […]

S. gordonii = test: Toxic cargo DM assay; format: cell-based, Streptococcus gordonii; conditions: monoculture, 1 min; CHX 0.033% and H2O2 0.25% final concentration, no DM (FIG. 8A left)
Procedure: as §1

SMILES	Total viable S. mutans after antimicrobial alone (no DM) (S. mutans)	Total viable S. gordonii after antimicrobial alone (no DM) (S. gordonii)
[H]/N=C(\N/C(=N/[H])NCCCCCCNC(=N)NC(=N)Nc1ccc(Cl)cc1)Nc1ccc(Cl)cc1 [CHX, chlorhexidine]	decreased the amount of total viable S. mutans and S. gordonii	decreased the amount of total viable S. mutans and S. gordonii
OO [H2O2, hydrogen peroxide]	decreased the amount of total viable S. mutans and S. gordonii	decreased the amount of total viable S. mutans and S. gordonii

Source: US11484479B2, “Formulation for the elimination of cariogenic and opportunistic pathogens within the oral cavity” (Research Institute at Nationwide Children's Hospital, priority 2015, dated 2022)
